Among the data in PubChem BioAssay (NCI) are TGI and GI50 values, retold here.

Among the test systems are COLO 205 colon; SNB-19 CNS; K-562 leukemia; SN12C renal; SF-539 CNS; SK-MEL-2 melanoma; SNB-75 CNS; HCC-2998 colon; NCI-H522 lung; T-47D breast.
Common to all, as to experiment: NCI anticancer screen, dose series, 48 h

Each structure is given as a SMILES string.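 Following 48 hours of exposure in 96-well plates, responses at five concentrations were used to interpolate endpoints linearly. The concentration for 50% growth inhibition is given as GI50. TGI denotes the concentration required for complete inhibition of growth.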 Where only a bound is given, the exact number is not on record here.

For `Cc1ccccc1N=Cc1ccc(N(CCC#N)S(=O)(=O)c2ccccc2)cc1`, the TGI in the experiment on COLO 205 colon, in the experiment with SNB-19 CNS, with K-562 leukemia, in the experiment on SN12C renal, in the experiment with SF-539 CNS and in the experiment with SK-MEL-2 melanoma was more than 100 µM in each case. Besides, the TGI in the experiment on SNB-75 CNS, in the experiment with HCC-2998 colon and in the experiment with NCI-H522 lung was more than 100 µM each time.

Take `[N-]=[N+]=Nc1ccccc1-[n+]1noc([O-])c1Br`: the TGI in the experiment on COLO 205 colon, in the experiment on SNB-19 CNS, in the experiment on K-562 leukemia, in the experiment on SN12C renal, with SF-539 CNS and in the experiment on SK-MEL-2 melanoma was more than 100 µM throughout. For the same compound, the TGI in the experiment with SNB-75 CNS and in the experiment on NCI-H522 lung was more than 100 µM in each case.

With `O=C(c1ccccc1)c1ccc(Cl)c([N+](=O)[O-])c1`, the GI50 in the experiment on T-47D breast was 7.54 µM; in the experiment on COLO 205 colon it was 5.01 µM; in the experiment on SNB-19 CNS, 16 µM; in the experiment with K-562 leukemia it was 3.44 µM; with SN12C renal it was 3.81 µM; in the experiment on SF-539 CNS, 5.1 µM. Also, the results for the GI50 in the experiment on SK-MEL-2 melanoma, in the experiment with SNB-75 CNS and with NCI-H522 lung were 2.96 µM, 4.74 µM and 1.41 µM, respectively. In addition, the TGI with T-47D breast came out at 38.6 µM; in the experiment with COLO 205 colon it was 19.9 µM; with SNB-19 CNS it was 30.2 µM; with K-562 leukemia it was 11.9 µM; in the experiment with SN12C renal, 14.8 µM; with SF-539 CNS, 19 µM. Also, the TGI with SK-MEL-2 melanoma is 6.89 µM; in the experiment on SNB-75 CNS, 18.9 µM; with NCI-H522 lung, 6.18 µM.

On to `COc1ccc2nc3cc(Cl)ccc3c(NCCC(=O)OCC(O)C(O)C(O[C@H](C)C(=O)NC(C)C(=O)NC(CCC(N)=O)C(=O)OCc3ccccc3)C(C=O)NC(C)=O)c2c1` (some centres undefined), for which the TGI in the experiment with COLO 205 colon stood at 32.6 µM; in the experiment with SNB-19 CNS it was 62.1 µM; with K-562 leukemia, 68 µM; in the experiment on SN12C renal, 31.4 µM; with SF-539 CNS, 37.1 µM; in the experiment with SK-MEL-2 melanoma, 41.8 µM. For the same compound, the TGI stood at 31.7 µM in the experiment on SNB-75 CNS, 33.6 µM with HCC-2998 colon and 28 µM with NCI-H522 lung.

Turning to `C[C@]12CCC3[C@@H](C[C@H]4OC(=O)[C@@]35CCC(=O)C=C45)C1CCC2=O` (some centres undefined), the TGI in the experiment on COLO 205 colon, with SNB-19 CNS, with K-562 leukemia, in the experiment on SN12C renal, in the experiment with SF-539 CNS and with SK-MEL-2 melanoma was more than 100 µM each time. The TGI in the experiment on HCC-2998 colon and in the experiment on NCI-H522 lung was more than 100 µM in each case.

In the case of `COC(=O)CCC(=O)CC(=O)C(=O)Nc1ccc(F)cc1`, the TGI with COLO 205 colon, in the experiment on SNB-19 CNS, in the experiment with K-562 leukemia, in the experiment on SN12C renal, with SF-539 CNS and with SK-MEL-2 melanoma was more than 100 µM throughout. In addition, the TGI in the experiment on SNB-75 CNS, with HCC-2998 colon and in the experiment with NCI-H522 lung was more than 100 µM throughout.

Take `COc1ccc(C(=O)C(c2ccc(OC)cc2)C2C(=O)Oc3ccccc32)cc1` (centres undefined): the GI50 in the experiment on COLO 205 colon, in the experiment on K-562 leukemia, in the experiment with SN12C renal, in the experiment with SF-539 CNS, with SK-MEL-2 melanoma and in the experiment with SNB-75 CNS was more than 100 µM each time. Besides, the GI50 with HCC-2998 colon and with NCI-H522 lung was more than 100 µM each time. Besides, the TGI with COLO 205 colon, with K-562 leukemia, with SN12C renal, in the experiment with SF-539 CNS, in the experiment on SK-MEL-2 melanoma and in the experiment on SNB-75 CNS was more than 100 µM throughout. In addition, the TGI with HCC-2998 colon and with NCI-H522 lung was more than 100 µM each time.

As to `Cc1cc(C)nc(NS(=O)(=O)c2ccc(NC(=O)c3cccc4c(Nc5ccc(S(=O)(=O)Nc6nc(C)cc(C)n6)cc5)c5ccccc5nc34)cc2)n1`, the TGI in the experiment with COLO 205 colon was determined as 45.4 µM; in the experiment with SNB-19 CNS it was 82.4 µM; with K-562 leukemia, 61.2 µM; with SN12C renal, 41.1 µM; with SF-539 CNS, 32.6 µM; with SK-MEL-2 melanoma, 70.4 µM. Also, the TGI amounted to 35.5 µM in the experiment with SNB-75 CNS and 32.8 µM in the experiment with NCI-H522 lung.

Take `COc1ccc(CN2C(=O)C(Cc3cc(OC)c(OC)c(C)c3OC)N(C(=O)OC(C)C)C(=O)/C2=C/c2cc(OC)c(OC)c(C)c2OC)cc1` (centres undefined): the TGI in the experiment with COLO 205 colon, in the experiment with SNB-19 CNS, with K-562 leukemia, in the experiment with SN12C renal, in the experiment with SF-539 CNS and in the experiment on SK-MEL-2 melanoma was more than 100 µM in each case. Further, the TGI in the experiment on SNB-75 CNS, in the experiment with HCC-2998 colon and in the experiment on NCI-H522 lung was more than 100 µM each time.

Consider `COC(=O)CSc1ccccc1`, for which the TGI with COLO 205 colon is more than 100 µM; with SNB-19 CNS it was more than 100 µM; with K-562 leukemia it was more than 100 µM; with SN12C renal, more than 100 µM; in the experiment on SF-539 CNS it was more than 100 µM; with SK-MEL-2 melanoma it was 46.4 µM. Moreover, the TGI in the experiment on SNB-75 CNS and with HCC-2998 colon was more than 100 µM in each case.

Regarding `CN(C)c1ccccc1CC(c1c[nH]c2ccccc12)c1c[nH]c2ccccc12`, the TGI was 11.3 µM in the experiment on COLO 205 colon; 27.8 µM in the experiment on SNB-19 CNS; 32.9 µM in the experiment with K-562 leukemia; 12.7 µM in the experiment with SN12C renal; 31 µM in the experiment with SF-539 CNS; 29.3 µM with SK-MEL-2 melanoma. For the same compound, the TGI in the experiment on SNB-75 CNS came to 22 µM; in the experiment on HCC-2998 colon it was 22.6 µM; with NCI-H522 lung it was 26.1 µM.

As for `Nc1nc(=O)n(C2CC(O)C(O)C(CO)O2)cc1F` (centres undefined), the TGI with COLO 205 colon, with SNB-19 CNS, with K-562 leukemia, with SN12C renal, with SF-539 CNS and with SK-MEL-2 melanoma was more than 100 µM throughout. The TGI with SNB-75 CNS, in the experiment with HCC-2998 colon and with NCI-H522 lung was more than 100 µM each time.

Turning to `O=C(Nc1ccc(Cl)c(Cl)c1)C(=O)Nn1c(=S)[nH]c2ccccc2c1=O`, the TGI in the experiment on COLO 205 colon, with SNB-19 CNS, in the experiment on K-562 leukemia, in the experiment with SN12C renal, with SF-539 CNS and in the experiment on SK-MEL-2 melanoma was more than 100 µM each time. The TGI in the experiment on SNB-75 CNS, with HCC-2998 colon and in the experiment on NCI-H522 lung was more than 100 µM throughout.
